Reference: patent publication US12465601B2, “Uses of phosphodiesterase inhibitors” (TRANSTHERA SCIENCES (NANJING), INC., priority 2019, dated 2025)

Legend:
[1] = test system: HEK293T cells double transfected with human PDE9A2 and natriuretic peptide protein receptor 1 (NPR1); experiment: Effect on cGMP content in transiently transfected HEK293T cells (ANF-stimulated, cGMP ELISA); format: cell-based; details: ANF 1 μM; compound 0.12-30 μM; FIG. 1
Protocol: Cell name: Human embryonic kidney cell HEK293T
HEK293T cells were plated in a 6-well plate at 2×10^6 cells/well and cultured for 6 h to allow for adherence of cells.
The medium of each well was changed to 1.5 mL DMEM complete medium;
Non-transfected wells: An equal volume of DMEM complete medium (700 μL DMEM complete medium) was added to non-transfected wells.
The medium was aspirated from each well. The cells were washed once with PBS, and 250 μL of 0.5 M perchloric acid was added.
The cells were collected with a cell scraper, and transferred into a 1.5 mL centrifuge tube. After homogeneously mixing by vortex, the cells were centrifuged at 6000 g for 20 min at 4° C. […]
The plate was washed thoroughly 5 times, then 200 μL of Ellman's Reagent was added to each well. The plate was sealed, shaken in the dark, and color-developed for 60 min, and then detected for absorbance value at 412 nm.
Firstly, the non-specific binding (the reading of each well minus the reading of the NSB well) was subtracted, and then B/B0 was calculated, that is, the ratio of the binding of the sample or standard to the maximum binding, and converted according to the following formula, and then the obtained logit(B/B0) and lg (compound concentration) were subjected to linear regression analysis to obtain a standard curve. logit(B/B0)=ln[B/B0/(1−B/B0)] […]

rats with heart failure = experiment: Heart failure models of rats induced by coronary artery ligation; format: in vivo, Sprague Dawley rats; details: 30 mpk p.o bid, 28 days
Protocol: Sprague Dawley rats (SD rats), male, weight of about 220 g during modeling. Before operation, the animals were anesthetized by intraperitoneal injection of sodium pentobarbital injection, and atropine was injected intraperitoneally to eliminate phlegm. After the rat was anesthetized and fixed in supine position, a ventilator was used for assisted breathing, the chest was opened between the third and fourth ribs, and the left anterior descending coronary artery was ligated with a 5-0 suture needle. After the ligation was completed, the chest cavity was closed, the skin was sutured, and the rats were put in an insulation blanket for recovery. The same operation was performed on the sham group, except for the silk ligature operation. After the operation, the rats were subjected to intramuscular injection of meloxicam for pain relief, intraperitoneal injection of gentamicin sulfate injection for eliminating infection, and intraperitoneal injection of lidocaine for preventing ventricular fibrillation. One week after the animals recovered from surgery, the model rats were divided into a model group and a therapeutic drug group (compound 102 group), and the vehicle and compound 102 were administered by gavage, respectively, twice a day for four consecutive weeks. During the experiment, the living status of the animals were observed and abnormal conditions were recorded to evaluate the safety of the compound; and administration was performed for 28 days. The animals were anesthetized by intraperitoneal injection of sodium pentobarbital on the second day after the last administration, and echocardiographic detection and hemodynamic detection were performed to evaluate the effect of the compound on cardiac systolic function and ventricular volume. After the end of the experiment, end point treatment was performed, and the heart was taken for material collection for subsequent related researches on cGMP and protein expression. One week after the animals recovered from surgery, the rats were anesthetized with isoflurane, and a small animal ultrasound imaging system Vevo was used to examine the left ventricular function of the model rats. The model was considered successful if the LVEF % was reduced by 30%. Except for the sham group, the animals were randomly divided into 2 groups according to LVEF % and body weight. The number of animals in each group and the method of administration were as follows: [table] At the end of the experiment, rats were sacrificed and the infarct heart tissue was fixed with 4% formaldehyde, dehydrated, embedded in paraffin, and sectioned. Collagen deposition status was observed under a microscope by means of using Sirius red staining, and the Leica aperio digital slice scanning system was used for scanning analysis. The main evaluation indexes are LVEF % (left ventricular ejection fraction), FS (left ventricular fractional shortening), ESV (left ventricular end-systolic volume), EDV (left ventricular end-diastolic volume), and heart rate (HR). At the end of the experiment, the proportion of Sirius red in peri-infarction zone was quantified to evaluate the collagen deposition status. The data was represented by Mean±S.E.M, and Graphpad Prism 5.0 was used for statistical mapping. Statistical analysis was performed with T-test.

In the case of `CCc1cc2c(N3CCC(C)(OC)CC3)c(C#N)c(=O)[nH]c2cn1` [Compound 102, 6-ethyl-4-(4-methoxy-4-methylpiperidin-1-yl)-2-oxo-1,2-dihydro-1,7-diazanaphthalene-3-carbonitrile], the “cGMP content in HEK293T cells” value [1] is reported as “Up-regulation effect”, the “Percentage (%) of collagen deposition in the peri-infarction zone” value (rats with heart failure; Mean ± S.E.M, Sirius red staining, P<0.001 vs model group) is reported as 21.5 ± 1.234 % and the “collagen deposition in the peri-infarction zone (in words)” value (rats with heart failure; compared with model group P<0.001) is reported as “significantly reduce”. For the same molecule, the “LVEF (left ventricular ejection fraction)” value (rats with heart failure; vs model group P<0.001, FIG. 3) was “improve the reduction”, the “FS (left ventricular fractional shortening)” value (rats with heart failure; vs model group P<0.001, FIG. 4) was “improve the reduction” and the “ESV (left ventricular end-systolic volume)” value (rats with heart failure; vs model group P<0.01, FIG. 5) was “significant improvement effect”. For the same molecule, the “EDV (left ventricular end-diastolic volume)” value (rats with heart failure; vs model group P<0.05, FIG. 6) was “significant improvement effect”.
